{
  "source": "PubChem BioAssay AID1549",
  "about": "(Sanford-Burnham Center for Chemical Genomics, 2009)",
  "note": "Active and inactive are the calls of the source. No rule for the calls is given here.",
  "data": [
    {"target": "Influenza A virus M2 proton channel (A/TW/4845/1999 H1N1)", "assay": "M2 proton channel binding, NMR based, influenza A virus H1N1 strain (AID 1549)", "details": "NMR binding screen, M2 protein", "values": [
      {"smiles": "Cc1oc(-c2ccccc2)cc1CO", "Kd": "> 4 mM (inactive)"},
      {"smiles": "COc1c(O)cc2c(c1O)[C@H]1O[C@H](CO)[C@@H](O)[C@H](O)[C@@H]1OC2=O", "Kd": "> 4 mM (inactive)"},
      {"smiles": "Cc1ccc(-n2[nH]c(C)cc2=O)cc1", "Kd": "> 4 mM (inactive)"},
      {"smiles": "O=c1[nH]c2sc3c(c2c2ncnn12)CCCC3", "Kd": "> 4 mM (inactive)"},
      {"smiles": "COC(=O)Nc1c(C)n(C)n(-c2ccccc2)c1=O", "Kd": "> 4 mM (inactive)"},
      {"smiles": "COc1cccc(NC(=O)c2ncn[nH]2)c1", "Kd": "> 4 mM (inactive)"},
      {"smiles": "COc1ccc(-c2cc(=O)c3cc(OC)ccc3o2)cc1", "Kd": "> 4 mM (inactive)"},
      {"smiles": "Cc1sc2nc(SCC(=O)N(C)C)[nH]c(=O)c2c1C", "Kd": "> 4 mM (inactive)"},
      {"smiles": "NC1=NC(=O)C(CC(=O)Nc2ccccc2F)S1", "note": "(stereo not given)", "Kd": "> 4 mM (inactive)"},
      {"smiles": "CSCCNC(C)=O", "Kd": "> 4 mM (inactive)"},
      {"smiles": "c1ccc(Cn2cccc2)nc1", "Kd": "> 4 mM (inactive)"},
      {"smiles": "NC(=S)NC1CCS(=O)(=O)C1", "note": "(stereo not given)", "Kd": "> 4 mM (inactive)"},
      {"smiles": "NS(=O)(=O)c1ccc(F)cc1", "Kd": "> 4 mM (inactive)"},
      {"smiles": "CCn1c(=O)cc(N2CCC3(CC2)OCCO3)[nH]c1=O", "Kd": "> 4 mM (inactive)"},
      {"smiles": "Nc1cncc(C(=O)O)c1", "Kd": "> 4 mM (inactive)"},
      {"smiles": "Oc1cccc2[nH]ccc12", "Kd": "> 4 mM (inactive)"},
      {"smiles": "Cn1nc(C(=O)Nc2cccnc2)cc1Cl", "Kd": "> 4 mM (inactive)"},
      {"smiles": "Cc1nc(-c2ccc(CO)s2)cs1", "Kd": "> 4 mM (inactive)"},
      {"smiles": "COC(=O)c1c(OC)cc2c(c1C)Oc1c(Cl)c(OC(C)=O)c(Cl)c(C)c1C(=O)O2", "Kd": "> 4 mM (inactive)"},
      {"smiles": "O=C(Nn1cnnc1)c1csc2ccccc12", "Kd": "> 4 mM (inactive)"},
      {"smiles": "NC(=O)CSc1nnc2ccc3ccccc3n12", "Kd": "> 4 mM (inactive)"},
      {"smiles": "CC(=O)Nc1sccc1C(N)=O", "Kd": "> 4 mM (inactive)"},
      {"smiles": "NC(=O)CSc1nc2ncnc(N)c2[nH]1", "Kd": "> 4 mM (inactive)"},
      {"smiles": "NC(Cc1c[nH]c2ccccc12)C(=O)O", "note": "(stereo not given)", "Kd": "> 4 mM (inactive)"},
      {"smiles": "CC(C(N)=O)N1C(=O)c2ccccc2C1=O", "note": "(stereo not given)", "Kd": "> 4 mM (inactive)"},
      {"smiles": "CC(C)(OC(=O)c1ccccc1)[C@@H]1Cc2cc3ccc(=O)oc3cc2O1", "Kd": "> 4 mM (inactive)"},
      {"smiles": "CCCCCCCCCCCCCCC(C(=O)O)C(O)(CC(=O)OC)C(=O)O", "note": "(stereo not given)", "Kd": "> 4 mM (inactive)"},
      {"smiles": "C[n+]1cccc(C(=O)[O-])c1", "Kd": "> 4 mM (inactive)"},
      {"smiles": "CCNS(=O)(=O)c1cc(Br)ccc1OC", "Kd": "> 4 mM (inactive)"},
      {"smiles": "Cc1nn2c(=O)c(NC(=O)c3ccccc3)cnc2s1", "Kd": "> 4 mM (inactive)"},
      {"smiles": "OCc1nc2ccccc2s1", "Kd": "> 4 mM (inactive)"},
      {"smiles": "CN(C)C(=O)CSc1cccc2cccnc12", "Kd": "> 4 mM (inactive)"},
      {"smiles": "C=C[C@H]1CN2CC[C@H]1C[C@@H]2[C@@H](O)c1ccnc2ccc(OC)cc12", "Kd": "> 4 mM (inactive)"},
      {"smiles": "Cc1cc(Cl)ccc1NC(=O)C(N)=O", "Kd": "> 4 mM (inactive)"},
      {"smiles": "C[N+](C)(C)CC(O)CC(=O)O", "note": "(stereo not given)", "Kd": "> 4 mM (inactive)"},
      {"smiles": "C/C=C(\\C)C(=O)O[C@H]1C[C@@H](OC(C)=O)[C@@]2(C(=O)OC)CO[C@@H]3C2[C@]12CO[C@](O)(C(=O)OC)[C@H]2[C@](C)(C12O[C@@]1(C)[C@H]1C[C@@H]2OC2OC=C[C@@]21O)[C@@H]3O", "note": "(stereo not given in full)", "Kd": "> 4 mM (inactive)"},
      {"smiles": "Cc1nnsc1C(=O)O", "Kd": "> 4 mM (inactive)"},
      {"smiles": "O=C(NCc1cccc(Cl)c1)c1cccnc1", "Kd": "> 4 mM (inactive)"},
      {"smiles": "NCc1nc2ccccc2s1", "Kd": "> 4 mM (inactive)"},
      {"smiles": "O=c1cc(CO)oc(CN2CCCCC2)c1O", "Kd": "> 4 mM (inactive)"},
      {"smiles": "Fc1ccc(Br)cc1/C=N/n1cnnc1", "Kd": "> 4 mM (inactive)"},
      {"smiles": "COC(=O)c1cncc(C(=O)OC)c1", "Kd": "> 4 mM (inactive)"},
      {"smiles": "Cc1cc(NC(=O)NCCCSc2nncn2C)no1", "Kd": "> 4 mM (inactive)"},
      {"smiles": "COC(=O)Nc1ccc2ncn(C)c(=O)c2c1", "Kd": "> 4 mM (inactive)"},
      {"smiles": "NC(=O)CN1CC(=O)NC(=O)C1", "Kd": "> 4 mM (inactive)"},
      {"smiles": "Cc1ncoc1C(=O)Nc1ccccc1C(N)=O", "Kd": "> 4 mM (inactive)"},
      {"smiles": "COc1ccc(NC(=O)N2CCCCC2)cc1", "Kd": "> 4 mM (inactive)"},
      {"smiles": "O=c1[nH]oc2ccccc12", "Kd": "> 4 mM (inactive)"},
      {"smiles": "CC(=O)Oc1ccc2c(c1C(C)C)CCC1C(C)(C)CCC[C@]21C", "note": "(stereo not given in full)", "Kd": "> 4 mM (inactive)"},
      {"smiles": "O=C(c1ccccc1F)N1CCN(c2ccccc2)CC1", "Kd": "> 4 mM (inactive)"},
      {"smiles": "CC(=O)c1cc(-c2nc3ccccc3n2C)n(C)c1", "Kd": "> 4 mM (inactive)"},
      {"smiles": "O=C(Nc1ccccc1C(F)(F)F)c1cnccn1", "Kd": "> 4 mM (inactive)"},
      {"smiles": "COC(=O)c1ccc2snnc2c1", "Kd": "> 4 mM (inactive)"},
      {"smiles": "O=C(Nc1ccccc1[N+](=O)[O-])c1ccc(=O)[nH]n1", "Kd": "> 4 mM (inactive)"},
      {"smiles": "COc1ccccc1NC(=O)/C=N/O", "Kd": "> 4 mM (inactive)"},
      {"smiles": "Nc1ncnc(Cl)c1[N+](=O)[O-]", "Kd": "> 4 mM (inactive)"},
      {"smiles": "O=C1CCC(=O)N1c1ccc(F)cc1", "Kd": "> 4 mM (inactive)"},
      {"smiles": "COc1cc(/C=C2/NC(=S)NC2=O)cc(Cl)c1O", "Kd": "> 4 mM (inactive)"},
      {"smiles": "O=C1CCC(C(=O)NCc2ccc(Cl)cc2)N1", "note": "(stereo not given)", "Kd": "> 4 mM (inactive)"},
      {"smiles": "Nc1ncnc2c1ncn2CCN1CCCCC1", "Kd": "> 4 mM (inactive)"}
    ]}
  ]
}
